BindingDB's records for PubMed 1874734 (Laboratoires Glaxo, 1991)

Molecular target: cAMP-dependent protein kinase catalytic subunit alpha (Rattus norvegicus, UniProt P27791)
Assay: PKA assay

Row | IC50 | SMILES
1 | 2000 nM | CN1CCCC1CCn1cc(C2=C(c3c[nH]c4ccccc34)C(=O)NC2=O)c2ccccc21 (configuration not stated) [3-(1H-indol-3-yl)-4-{1-[2-(1-methylpyrrolidin-2-yl)ethyl]-1H-indol-3-yl}-2,5-dihydro-1H-pyrrole-2,5-dione]
2 | > 10000 nM | CN(C)CCCn1cc(C2=C(c3c[nH]c4ccccc34)CNC2=O)c2ccccc21 [3-[1-(3-dymethylaminopropyl)-indol-3-yl]-4-(indol-3-yl)-3-pyrrolin-2-one]
